Test results: EP4692090A1 (Shanghai Fosun Pharmaceutical (Group) Co., Ltd., priority 2023, dated 2024)
Where two headings read alike, the source gives them in different places.

Assays:
LoVo cells = test: LoVo cell proliferation assay (CellTiter-Glo); type: cell-based; conditions: maximum concentration 10 µM, 9 concentrations
Method in brief: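 LoVo cells, 2,000 per well, were treated after overnight attachment with 9-point 3-fold dilutions from 10 µM for 5 days at 37 °C. Viability was read by CellTiter-Glo luminescence. Inhibition % was taken relative to DMSO control, and IC50 came from the concentration–inhibition curve.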

ATR kinase = target: T1, ATR kinase (Homo sapiens, UniProt Q13535); test: Inhibitory effect on ATR kinase activity (Caliper mobility shift, FAM-labeled RAD17 peptide substrate); type: biochemical
T1 construct: purchased Eurofins 14-953
Method in brief: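 Caliper mobility-shift assay with 1 nM ATR, FAM-labeled RAD17 peptide […] and 5 mM ATP in HEPES pH 7.5 with 10 mM MnCl2, run 3 h at 28 °C and stopped with EDTA. Compounds were tested in 10-point 3-fold dilutions from 1 µM. IC50 was fitted from % inhibition of substrate conversion versus blank control.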

[1] = Homo sapiens, LoVo, 120 h, read-out: LoVo IC50 (nM), LoVo cells, 2,000 cells per well, 5 days incubation, CellTiter-Glo
[2] = read-out: ATR kinase IC50, 1 nM ATR kinase (Eurofins), 28°C for 3 hours, maximum concentration 1 µM, 10 concentrations
[3] = Homo sapiens, LoVo, 120 h, LoVo cells, 2,000 cells per well, 5 days incubation, CellTiter-Glo, read-out: LoVo IC50
[4] = 1 nM ATR kinase (Eurofins), 28°C for 3 hours, maximum concentration 1 µM, 10 concentrations, read-out: ATR kinase IC50
[5] = LoVo cells, 2,000 cells per well, 5 days incubation, CellTiter-Glo, read-out: LoVo IC50

T1 sequence (Q13535 whole entry): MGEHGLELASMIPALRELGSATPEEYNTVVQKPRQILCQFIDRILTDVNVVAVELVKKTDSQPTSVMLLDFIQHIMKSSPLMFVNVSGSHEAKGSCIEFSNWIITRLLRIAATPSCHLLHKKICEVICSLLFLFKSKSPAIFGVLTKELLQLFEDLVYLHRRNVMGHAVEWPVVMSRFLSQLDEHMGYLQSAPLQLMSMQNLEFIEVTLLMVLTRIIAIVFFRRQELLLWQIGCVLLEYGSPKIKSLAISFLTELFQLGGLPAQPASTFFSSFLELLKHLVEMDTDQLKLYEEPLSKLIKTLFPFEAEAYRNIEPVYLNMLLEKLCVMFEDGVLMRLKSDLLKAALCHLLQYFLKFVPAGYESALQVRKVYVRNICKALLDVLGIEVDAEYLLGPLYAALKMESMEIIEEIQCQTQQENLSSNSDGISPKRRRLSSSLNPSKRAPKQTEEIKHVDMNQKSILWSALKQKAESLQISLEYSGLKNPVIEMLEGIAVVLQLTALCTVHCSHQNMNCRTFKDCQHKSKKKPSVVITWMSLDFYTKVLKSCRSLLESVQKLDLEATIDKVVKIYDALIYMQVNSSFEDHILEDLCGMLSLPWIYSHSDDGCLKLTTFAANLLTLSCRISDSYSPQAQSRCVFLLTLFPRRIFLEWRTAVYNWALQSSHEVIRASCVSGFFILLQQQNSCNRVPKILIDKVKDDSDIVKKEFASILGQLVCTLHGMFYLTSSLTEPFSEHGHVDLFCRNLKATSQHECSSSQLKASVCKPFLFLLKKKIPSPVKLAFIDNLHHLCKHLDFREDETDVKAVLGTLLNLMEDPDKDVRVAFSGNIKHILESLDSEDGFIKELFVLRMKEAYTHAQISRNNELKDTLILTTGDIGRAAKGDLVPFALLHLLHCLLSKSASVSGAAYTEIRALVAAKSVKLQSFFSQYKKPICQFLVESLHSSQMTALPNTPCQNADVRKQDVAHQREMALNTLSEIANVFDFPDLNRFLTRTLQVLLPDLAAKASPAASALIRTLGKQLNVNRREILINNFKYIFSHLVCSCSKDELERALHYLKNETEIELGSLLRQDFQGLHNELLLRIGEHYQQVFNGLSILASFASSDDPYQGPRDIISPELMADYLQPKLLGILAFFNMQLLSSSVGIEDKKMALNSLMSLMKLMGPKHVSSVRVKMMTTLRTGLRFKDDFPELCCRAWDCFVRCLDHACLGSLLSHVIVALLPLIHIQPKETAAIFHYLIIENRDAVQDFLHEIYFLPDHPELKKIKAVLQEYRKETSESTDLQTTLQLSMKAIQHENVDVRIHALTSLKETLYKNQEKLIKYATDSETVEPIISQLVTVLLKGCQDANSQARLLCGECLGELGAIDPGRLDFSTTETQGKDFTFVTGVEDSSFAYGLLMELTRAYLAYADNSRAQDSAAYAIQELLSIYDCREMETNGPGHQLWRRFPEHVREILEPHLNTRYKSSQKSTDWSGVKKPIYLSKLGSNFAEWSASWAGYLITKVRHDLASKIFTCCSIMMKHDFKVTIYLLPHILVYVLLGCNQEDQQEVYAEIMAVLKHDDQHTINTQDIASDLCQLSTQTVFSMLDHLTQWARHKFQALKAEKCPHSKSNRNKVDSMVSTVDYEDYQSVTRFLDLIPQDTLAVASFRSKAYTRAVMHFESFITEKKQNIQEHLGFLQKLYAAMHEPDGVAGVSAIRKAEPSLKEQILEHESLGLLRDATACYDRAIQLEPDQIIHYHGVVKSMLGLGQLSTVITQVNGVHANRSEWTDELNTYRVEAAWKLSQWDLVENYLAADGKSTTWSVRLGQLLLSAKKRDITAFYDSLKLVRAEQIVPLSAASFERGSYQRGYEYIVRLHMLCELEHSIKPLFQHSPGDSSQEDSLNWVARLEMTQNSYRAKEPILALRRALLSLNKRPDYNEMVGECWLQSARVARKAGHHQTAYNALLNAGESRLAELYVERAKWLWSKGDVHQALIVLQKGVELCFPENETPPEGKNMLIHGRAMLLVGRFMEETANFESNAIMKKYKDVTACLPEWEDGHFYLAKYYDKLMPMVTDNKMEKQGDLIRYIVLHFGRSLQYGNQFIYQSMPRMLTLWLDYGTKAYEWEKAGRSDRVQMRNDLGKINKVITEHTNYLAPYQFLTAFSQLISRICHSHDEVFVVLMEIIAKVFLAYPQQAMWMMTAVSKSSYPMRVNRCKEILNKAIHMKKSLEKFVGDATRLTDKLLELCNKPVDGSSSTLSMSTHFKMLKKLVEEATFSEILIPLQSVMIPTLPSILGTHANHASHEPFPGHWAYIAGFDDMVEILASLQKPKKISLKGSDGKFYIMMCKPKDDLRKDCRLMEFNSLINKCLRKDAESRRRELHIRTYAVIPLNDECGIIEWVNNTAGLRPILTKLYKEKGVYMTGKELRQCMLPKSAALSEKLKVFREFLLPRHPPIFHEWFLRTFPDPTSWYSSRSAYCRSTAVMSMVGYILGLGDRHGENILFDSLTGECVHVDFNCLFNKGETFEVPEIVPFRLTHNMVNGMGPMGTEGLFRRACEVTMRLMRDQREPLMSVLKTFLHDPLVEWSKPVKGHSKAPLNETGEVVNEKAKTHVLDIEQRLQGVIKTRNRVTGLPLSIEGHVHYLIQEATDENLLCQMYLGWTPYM
T1 sequence (Q8WXE1 whole entry partner): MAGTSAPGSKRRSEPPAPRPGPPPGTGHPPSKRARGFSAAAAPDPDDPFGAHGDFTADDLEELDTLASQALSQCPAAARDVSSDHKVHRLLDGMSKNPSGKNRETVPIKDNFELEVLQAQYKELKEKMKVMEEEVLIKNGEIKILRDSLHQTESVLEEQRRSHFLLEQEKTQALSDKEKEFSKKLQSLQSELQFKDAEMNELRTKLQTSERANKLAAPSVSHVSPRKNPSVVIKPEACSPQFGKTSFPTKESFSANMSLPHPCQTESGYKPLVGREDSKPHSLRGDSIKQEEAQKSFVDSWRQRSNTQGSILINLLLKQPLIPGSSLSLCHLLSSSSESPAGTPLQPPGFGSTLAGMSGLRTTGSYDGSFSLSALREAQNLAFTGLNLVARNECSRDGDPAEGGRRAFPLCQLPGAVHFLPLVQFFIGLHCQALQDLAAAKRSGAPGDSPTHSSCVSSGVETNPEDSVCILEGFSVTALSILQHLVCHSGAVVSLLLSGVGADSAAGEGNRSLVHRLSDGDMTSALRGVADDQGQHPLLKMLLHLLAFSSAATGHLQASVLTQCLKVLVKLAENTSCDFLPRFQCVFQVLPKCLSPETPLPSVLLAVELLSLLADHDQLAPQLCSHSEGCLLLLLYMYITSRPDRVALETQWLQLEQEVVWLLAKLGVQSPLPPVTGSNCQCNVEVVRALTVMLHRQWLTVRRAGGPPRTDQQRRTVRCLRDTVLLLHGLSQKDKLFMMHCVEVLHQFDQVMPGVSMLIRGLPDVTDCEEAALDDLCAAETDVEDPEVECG

SMILES	IC50 (LoVo cells; [1])	IC50 (ATR kinase; [2])	IC50 (LoVo cells; [3])	IC50 (ATR kinase; [4])	IC50 (LoVo cells; [5])
C[C@@H]1COCCN1c1cc2c3c(n1)c(-c1cc[nH]n1)nn3CCC(=O)N2C1CC1(F)F (stereo partly drawn) [Compound 89, 6-(2,2-difluorocyclopropyl)-4-((R)-3-methylmorpholinyl)-2-(1H-pyrazol-3-yl)-8,9-dihydro-1,3,6,9a-tetraazabenzo[cd]azulene-7(6H)-one]	100 to 1000 nM	< 10 nM	–	–	–
C[C@@H]1COCCN1c1cc2c3c(n1)c(-c1cc[nH]n1)nn3CCC(=O)N2CC(C)(C)O [Compound 95, (R)-6-(2-hydroxy-2-methylpropyl)-4-(3-methylmorpholinyl)-2-(1H-pyrazol-3-yl)-8,9-dihydro-1,3,6,9a-tetraazabenzo[cd]azulene-7(6H)-one]	100 to 1000 nM	10 to 100 nM	–	–	–
C[C@@H]1COCCN1c1cc2c3c(nn(-c4cc[nH]n4)c3n1)CCN(C(=O)C1CC3(C1)CC3(F)F)C2 (single isomer, unassigned) [Compound 20A]	–	–	> 1000 nM	10 to 100 nM	–
C[C@@H]1COCCN1c1cc2c3c(nn(-c4cc[nH]n4)c3n1)CCC(=O)N2CC1(C)CC1 [Compound 77, (R)-6-((1-methylcyclopropyl)methyl)-4-(3-methylmorpholino)-2-(1H-pyrazol-3-yl)-2,6,8,9-tetrahydro-7H-1,2,3,6-tetraazabenzo[cd]azulene-7-one]	–	–	< 100 nM	< 10 nM	–
C=CS(=O)(=O)N1CCc2nn(-c3cc[nH]n3)c3nc(N4CCOC[C@H]4C)cc(c23)C1C (stereo partly drawn) [Compound 50, (3R)-3-methyl-4-(6-methyl-2-(1H-pyrazol-3-yl)-7-(vinylsulfonyl)-6,7,8,9-tetrahydro-2H-1,2,3,7-tetraazabenzo[cd]azulen-4-yl)morpholine]	–	–	< 100 nM	< 10 nM	–
CC1c2cc(N3CCOC[C@H]3C)nc3c(-c4cc[nH]n4)nn(c23)CCN1C1COC1 (stereo partly drawn) [Compound 57, (3R)-3-methyl-4-(6-methyl-7-(oxetan-3-yl)-2-(1H-pyrazol-3-yl)-6,7,8,9-tetrahydro-1,3,7,9a-tetraazabenzo[cd]azulen-4-yl)morpholine]	–	–	100 to 1000 nM	10 to 100 nM	–
C[C@@H]1COCCN1c1cc2c3c(n1)c(-c1cc[nH]n1)nn3CCC(=O)N2C1(C)CC1 [Compound 88, (R)-6-(1-methylcyclopropyl)-4-(3-methylmorpholinyl)-2-(1H-pyrazol-3-yl)-8,9-dihydro-1,3,6,9a-tetraazabenzo[cd]azulene-7(6H)-one]	< 100 nM	< 10 nM	–	–	–
C[C@@H]1COCCN1c1cc2c3c(nn(-c4cc[nH]n4)c3n1)CCN(C1COC1)C2C1CC1 (stereo partly drawn) [Compound 135, (3R)-4-(6-cyclopropyl-7-(oxetan-3-yl)-2-(1H-pyrazol-3-yl)-6,7,8,9-tetrahydro-2H-1,2,3,7-tetraazabenzo[cd]azulen-4-yl)-3-methylmorpholine]	–	–	< 100 nM	10 to 100 nM	–
CC(C)S(=O)(=O)N1CCc2nn(-c3cc[nH]n3)c3nc(N4CCOC[C@H]4C)cc(c23)C1 [Compound 24, (R)-4-(7-(isopropylsulfonyl)-2-(1H-pyrazol-3-yl)-6,7,8,9-tetrahydro-2H-1,2,3,7-tetraazabenzo[cd]azulen-4-yl)-3-methylmorpholine]	–	–	100 to 1000 nM	< 10 nM	–
C[C@@H]1COCCN1c1cc2c3c(nn(-c4cc[nH]n4)c3n1)CCN(S(C)(=O)=O)C2 [Compound 22, (R)-3-methyl-4-(7-(methylsulfonyl)-2-(1H-pyrazol-3-yl)-6,7,8,9-tetrahydro-2H-1,2,3,7-tetraazabenzo[cd]azulen-4-yl)morpholine]	–	–	< 100 nM	< 10 nM	–
C[C@@H]1COCCN1c1cc2c3c(nn(-c4cc[nH]n4)c3n1)CCN(C1CC(C(F)(F)F)C1)C2 (single isomer, unassigned) [Compound 13A]	–	–	–	10 to 100 nM	100 to 1000 nM
CC1NC(=O)Cn2nc(-c3cc[nH]n3)c3nc(N4CCOC[C@H]4C)cc1c32 (stereo partly drawn) [Compound 56, 6-methyl-4-((R)-3-methylmorpholinyl)-2-(1H-pyrazol-3-yl)-6,7-dihydro-1,3,7,9a-tetraazabenzo[cd]azulen-8(9H)-one]	> 1000 nM	10 to 100 nM	–	–	–
C[C@@H]1COCCN1c1cc2c3c(n1)c(-c1cc[nH]n1)nn3CCC(=O)N2C1CC(F)(F)C1 [Compound 109, (R)-6-(3,3-difluorocyclobutyl)-4-(3-methylmorpholinyl)-2-(1H-pyrazol-3-yl)-8,9-dihydro-1,3,6,9a-tetraazabenzo[cd]azulene-7(6H)-one]	100 to 1000 nM	10 to 100 nM	–	–	–
CC(C)C1c2cc(N3CCOC[C@H]3C)nc3c2c(nn3-c2cc[nH]n2)CCN1C1COC1 (stereo partly drawn) [Compound 136, (3R)-4-(6-isopropyl-7-(oxetan-3-yl)-2-(1H-pyrazol-3-yl)-6,7,8,9-tetrahydro-2H-1,2,3,7-tetraazabenzo[cd]azulen-4-yl)-3-methylmorpholine]	–	–	< 100 nM	10 to 100 nM	–
C[C@@H]1COCCN1c1cc2c3c(n1)c(-c1cc[nH]n1)nn3CCC(=O)N2C1CC1 [Compound 82, (R)-6-cyclopropyl-4-(3-methylmorpholino)-2-(1H-pyrazol-3-yl)-8,9-dihydro-1,3,6,9a-tetraazabenzo[cd]azulene-7(6H)-one]	–	–	< 100 nM	< 10 nM	–
C[C@@H]1COCCN1c1cc2c3c(n1)c(-c1cc[nH]n1)nn3CCCN2S(C)(=O)=O [Compound 121, (R)-3-methyl-4-(6-(methylsulfonyl)-2-(1H-pyrazol-3-yl)-6,7,8,9-tetrahydro-1,3,6,9a-tetraazabenzo[cd]azulen-4-yl)morpholine]	–	–	< 100 nM	10 to 100 nM	–
C[C@@H]1COCCN1c1cc2c3c(n1)c(-c1cc[nH]n1)nn3CCCN2CC(C)(C)O [Compound 123, (R)-2-methyl-1-(4-(3-methylmorpholinyl)-2-(1H-pyrazol-3-yl)-8,9-dihydro-1,3,6,9a-tetraazabenzo[cd]azulene-6(7H)-yl)propan-2-ol]	100 to 1000 nM	10 to 100 nM	–	–	–
CC1c2cc(N3CCOC[C@H]3C)nc3c2c(nn3-c2cc[nH]n2)CCN1S(=O)(=O)C1CC1F (single isomer, unassigned) [Compound 151C]	–	–	–	10 to 100 nM	100 to 1000 nM
CC(C1CC1)N1C(=O)CCn2nc(-c3cc[nH]n3)c3nc(N4CCOC[C@H]4C)cc1c32 (stereo partly drawn) [Compound 100, 6-(1-cyclopropylethyl)-4-((R)-3-methylmorpholinyl)-2-(1H-pyrazol-3-yl)-8,9-dihydro-1,3,6,9a-tetraazabenzo[cd]azulene-7(6H)-one]	100 to 1000 nM	10 to 100 nM	–	–	–
C[C@@H]1COCCN1c1cc2c3c(nn(-c4cc[nH]n4)c3n1)CCN(C(=O)C1CC3(C1)CC3(F)F)C2 (single isomer, unassigned) [Compound 20B]	–	–	–	10 to 100 nM	> 1000 nM
[2H]C([2H])([2H])N1CCc2nn(-c3cc[nH]n3)c3nc(N4CCOC[C@H]4C)cc(c23)C1C (single isomer, unassigned) [Compound 47A]	–	–	< 100 nM	< 10 nM	–
CC(C(=O)N1CCc2nn(-c3cc[nH]n3)c3nc(N4CCOC[C@H]4C)cc(c23)C1)C(F)(F)F (stereo partly drawn) [Compound 16, 3,3,3-trifluoro-2-methyl-1-(4-((R)-3-methylmorpholinyl)-2-(1H-pyrazol-3-yl)-2,6,8,9-tetrahydro-7H-1,2,3,7-tetraazabenzo[cd]azulen-7-yl)propan-1-one]	100 to 1000 nM	< 10 nM	–	–	–
C[C@@H]1COCCN1c1cc2c3c(nn(-c4cc[nH]n4)c3n1)CCOC2(C)C [Compound 146, (R)-6,6-dimethyl-4-(3-methylmorpholino)-2-(1H-pyrazol-3-yl)-2,6,8,9-tetrahydro-7-oxa-1,2,3-triazabenzo[cd]azulene]	–	–	< 100 nM	< 10 nM	–
C[C@@H]1COCCN1c1cc2c3c(n1)c(-c1cc[nH]n1)nn3CCN(C1CC(F)(F)C1)C2 [Compound 52, (R)-4-(7-(3,3-difluorocyclobutyl)-2-(1H-pyrazol-3-yl)-6,7,8,9-tetrahydro-1,3,7,9a-tetraazabenzo[cd]azulen-4-yl)-3-methylmorpholine]	–	–	> 1000 nM	10 to 100 nM	–
C[C@@H]1COCCN1c1cc2c3c(nc(-c4cc[nH]n4)n3n1)CCC(=O)N2C1(C)CC1 [Compound 154, (R)-6-(1-methylcyclopropyl)-4-(3-methylmorpholino)-2-(1H-pyrazol-3-yl)-8,9-dihydro-1,2a,3,6-tetraazabenzo[cd]azulene-7(6H )-one]	–	–	< 100 nM	< 10 nM	–
C[C@@H]1COCCN1c1cc2c3c(n1)c(-c1cc[nH]n1)nn3CCN2C [Compound 62, (R)-3-methyl-4-(5-methyl-1-(1H-pyrazol-3-yl)-4,5-dihydro-3H-2,2a,5,8-tetraazaacenaphthen-7-yl)morpholine]	–	–	> 1000 nM	1000 to 2500 nM	–
CC1c2cc(N3CCOC[C@H]3C)nc3c2c(nn3-c2cc[nH]n2)CCN1S(=O)(=O)C1(C)CC1 (single isomer, unassigned) [Compound 49A]	–	–	< 100 nM	< 10 nM	–
C[C@@H]1COCCN1c1cc2c3c(n1)c(-c1cc[nH]n1)nn3CCC(=O)N2C1CC2(CCC2)C1 [Compound 92, (R)-4-(3-methylmorpholino)-2-(1H-pyrazol-3-yl)-6-(spiro [3.3]hept-2-yl)-8,9-dihydro-1,3,6,9a-tetraazabenzo[cd]azulene-7(6H)-one]	–	–	100 to 1000 nM	10 to 100 nM	–
